Source: ChEMBL document CHEMBL1158841, “Neoglycorandomization and chemoenzymatic glycorandomization: two complementary tools for natural product diversification” (J Nat Prod, 2005)

Columns and labels:
DU-145 = experiment: Cytotoxicity against human DU145 cells after 72 hrs by calcein AM assay; assay type: functional, cell-based; conditions: DU-145, 72 h, pooled result: one value given for 9 cell lines, strains, targets or settings
[1] = Activity of AknS in presence of AknT

| kcat [1] | Compound | IC50 (DU-145) |
| --- | --- | --- |
| – | C[C@H]1O[C@@H](O[C@H]2[C@@H](O)C[C@H](O[C@H]3[C@@H](O)C[C@H](O[C@H]4CC[C@@]5(C)[C@H](CC[C@@H]6[C@@H]5CC[C@]5(C)[C@@H](C7=CC(=O)OC7)CC[C@]65O)C4)O[C@@H]3C)O[C@@H]2C)C[C@H](O)[C@@H]1O [DIGITOXIN] | 440 nM |
| 0.00367 s⁻¹ | CC[C@@]1(O)C[C@H](O[C@H]2C[C@H](N(C)C)[C@H](O[C@H]3C[C@H](O)[C@H](O[C@H]4CCC(=O)[C@H](C)O4)[C@H](C)O3)[C@H](C)O2)c2c(cc3c(c2O)C(=O)c2c(O)cccc2C3=O)[C@H]1C(=O)OC | – |
